{"source": "paper PMC10135567", "about": "“New Indole-3-Propionic Acid and 5-Methoxy-Indole Carboxylic Acid Derived Hydrazone Hybrids as Multifunctional Neuroprotectors” (Antioxidants, 2023)", "key": {"[1]": {"assay": "Fe(II)-induced lipid peroxidation assay (LP assay, TBARS)", "format": "biochemical", "settings": "90 µM, lecithin 1 mg/mL, 0.1 mM FeCl2; lower = stronger antioxidant", "procedure": "The lipid peroxidation assay and a modification of the deoxyribose-degradation assay were used. Two types of measurement compositions in phosphate buffer (PB–K2HPO4/KH2PO4, pH 7.4) were prepared for both tests: (i) samples, containing the biologically relevant molecules (lecithin emulsion or deoxyribose), iron, and the tested hydrazones at the concentrations indicated below the figures; and (ii) controls, in which the tested hydrazones were omitted. The data for the sample activity were presented as a percentage of the control measurement.\nThe thiobarbituric-acid reactive-substance colorimetric test was performed in a model system of Fe(II)-induced lipid peroxidation as an emulsion prepared from egg yolk phospholipids. Each sample contained 1 mg/mL of lecithin. LP was initiated using 0.1 mM FeCl2. After 30 min incubation at 37 °C, 0.5 mL of 2.8% trichloroacetic acid solution and 0.5 mL of 0.5% thiobarbituric acid solution were added, following a second incubation at 100 °C for 20 min. Centrifugation at 3000 rpm for 20 min at 4 °C was performed, and we determined the absorbance value of the supernatant at 532 nm via Shimadzu UV-1601 UV-VIS spectrophotometer."}, "[2]": {"tested_on": "SH-SY5Y cells", "assay": "MTT cell viability assay (cytotoxicity), SH-SY5Y", "in_short": "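SH-SY5Y cells seeded at 2 × 10^4 cells/well, adhered 24 h, then exposed to compounds (1–500 μM) for 24 h at 37 °C, 5% CO2; DMSO ≤0.5% as solvent control. MTT (0.5 mg/mL) added for 3 h, formazan dissolved, absorbance read at 570 nm; ≥6 wells per concentration.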"}, "[3]": {"tested_on": "bEnd3 cells", "assay": "MTT cell viability assay (cytotoxicity), bEnd3", "format": "cell-based, mouse", "settings": "24 h, 1–500 µM", "in_short": "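bEnd3 mouse brain endothelial cells (0.7 × 10^4/well, 24 h adherence) were exposed to compounds at 1–500 μM for 24 h, with 0.5% DMSO as solvent control. Viability was read by MTT reduction (0.5 mg/mL, 3 h, 37 °C) as absorbance at 570 nm.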"}, "[4]": {"assay": "Stability by UV-vis measurements at different pH", "format": "physicochemical", "settings": "50 µM, pH 2, 4.5, 7.4 and 8.4, after 1, 2, 3 and 24 h", "procedure": "The stability of the compounds was also considered a potential issue. Therefore, selected compounds (3a, 3d, 5d, and 5e at a concentration of 50 µM) were studied by UV-vis measurements under different pH conditions, including pH 2, 4.5, 7.4, and 8.4, to represent different physiological (gastric, intestinal, etc.) conditions."}, "[5]": {"tested_on": "isolated rat-brain synaptosomes", "assay": "Synaptosomal viability (MTT), substances administered alone", "settings": "100 µM", "procedure": "(§1) Preparation of the synaptosomes was carried out by multiple centrifugations using the Percoll gradient. Homogenization of the brains was performed in 10 volumes of cold buffer 1, which contained 5 mM HEPES and 0.32 M sucrose (pH = 7.4), followed by centrifugation at different speeds. For preparation of the gradient, the synaptosomes were isolated by Percoll reagent. Synaptosomes were resuspended and incubated in buffer 2, which contained 290 mM NaCl, 0.95 mM MgCl2x6H2O, 10 mM KCl, 2.4 mM CaCl2xH2O, 2.1 mM NaH2PO4, 44 mM HEPES, and 13 mM D-glucose. Incubations were performed in a 5% CO2 + 95% O2 atmosphere. The method of Lowry et al., using bovine serum albumin as a standard content, was applied for determination of synaptosomal protein [51].\nSynaptosomal viability was monitored based on a (3-(4,5)-dimethylthiazol-2-yl)-2,5-diphenyl tetrazolium bromide) assay. After incubation with the compounds, synaptosomes were treated with 0.5 mg/mL solution of (3-(4,5)-dimethylthiazol-2-yl)-2,5-diphenyl tetrazolium bromide) for 10 min at […]. Then, the synaptosomes were centrifuged twice at 15,000× g for 1 min. The resulting formazan crystals were dissolved in DMSO (dimethyl sulfoxide), and the extinction was determined by spectrophotometric measurements at 580–660 nm. […]"}, "[6]": {"tested_on": "isolated rat-brain synaptosomes", "assay": "Level of reduced glutathione (GSH) in isolated synaptosomes, substances administered alone", "settings": "100 µM", "procedure": "as §1\nAfter the treatment with the tested compounds, the glutathione levels of the synaptosomes were determined with an Ellman reagent (DTNB). The GSH levels were evaluated based on the synaptosomal sediment, precipitated with 5% TCA, and centrifuged for 10 min at 4000× g. GSH levels in the supernatant were measured spectrophotometrically at 412 nm by a Spectro UV-vis split spectrophotometer (LaboMed. Inc., Los Angelis, California, USA). […]"}}, "note": "Entries after “also recorded” stand apart in the source; their conditions may differ.", "data": [{"compound": "COc1ccc2[nH]c(C(=O)NN=Cc3cc(OC)c(O)c(OC)c3)cc2c1", "note": "[Compound 5f, N′-(4-Hydroxy-3,5-dimethoxybenzylidene)-5-methoxy-1H-indole-2-carbohydrazide]", "values": [{"measurement": "absorbance ratio sample/control (lipid peroxidation)", "setting": "[1]", "value": "about 45%"}]}, {"compound": "N′-(4-Hydroxy-2-methoxybenzylidene)-3-(1H-indol-3-yl)propanehydrazide [Compound 3e]", "values": [{"measurement": "IC50", "setting": "[2]", "value": "> 500", "unit": "µM"}, {"measurement": "IC50", "setting": "[3]", "value": 85.5, "unit": "µM"}]}, {"compound": "COc1ccc2[nH]c(C(=O)NN=Cc3ccc(O)cc3O)cc2c1", "note": "[Compound 5c, N′-(2,4-Dihydroxybenzylidene)-5-methoxy-1H-indole-2-carbohydrazide]", "values": [{"measurement": "absorbance ratio sample/control (lipid peroxidation)", "setting": "[1]", "value": "about 45%"}]}, {"compound": "COc1cc(C=NNC(=O)CCc2c[nH]c3ccccc23)ccc1O", "note": "[Compound 3d, N′-(4-Hydroxy-3-methoxybenzylidene)-3-(1H-indol-3-yl)propanehydrazide]", "values": [{"measurement": "stability (UV-vis spectra over time)", "setting": "[4]", "value": "stable over time"}]}, {"compound": "COc1ccc2[nH]cc(CCNC(C)=O)c2c1", "note": "[Melatonin]", "values": [{"measurement": "reduction of synaptosomal viability (SV) vs. non-treated synaptosomes", "setting": "[5]", "value": 20, "unit": "%"}, {"measurement": "reduction of GSH level vs. non-treated synaptosomes", "setting": "[6]", "value": "did not decrease"}]}, {"compound": "COc1ccc(C=NNC(=O)c2cc3cc(OC)ccc3[nH]2)c(O)c1", "note": "[Compound 5e, N′-(2-Hydroxy-4-methoxybenzylidene)-5-methoxy-1H-indole-2-carbohydrazide]", "values": [{"measurement": "absorbance ratio sample/control (lipid peroxidation)", "setting": "[1]", "value": "about 45%"}, {"measurement": "stability (UV-vis spectra over time)", "setting": "[4]", "value": "stable over time; also recorded: very good stability"}]}, {"compound": "COc1cc(C=NNC(=O)CCc2c[nH]c3ccccc23)cc(OC)c1O", "note": "[Compound 3f, N′-(4-Hydroxy-3,5-dimethoxybenzylidene)-3-(1H-indol-3-yl)propanehydrazide]", "values": [{"measurement": "reduction of GSH level vs. non-treated synaptosomes", "setting": "[6]", "value": 40, "unit": "%"}, {"measurement": "absorbance ratio sample/control (lipid peroxidation)", "setting": "[1]", "value": "below 65%"}]}]}
